The values that follow come from PMC7915765, “Biochemical Characterization, Specificity and Inhibition Studies of HTLV-1, HTLV-2, and HTLV-3 Proteases” (Life, 2021).

Where two headings read alike, the source gives them in different places.

The term kcat/KM denotes the second-order rate constant that governs catalysis at low substrate concentration.

Assay [1] relates to HIV-1 PR. The note with it: cleavage sites of viruses other than HTLV, retrieved from the literature, ref [28]; cited from earlier work. The source says:
(§1) Table 3 Catalytic efficiencies of HTLV PRs on different substrates representing natural cleavage site sequences of viruses other than HTLV. Cleavage sites are labelled by an asterisk within the sequences. Abbreviations: MA (matrix), CA (capsid), NC (nucleocapsid), TF (transframe), RT (reverse-transcriptase), and IN (integrase). | column: kcat/KM (mM^−1 s^−1) / HIV-1 PR ^1

Assay [2] deals with HTLV-1 PR. The note with it: cited from earlier work.
From the text: as §1, with “Table 2 Catalytic efficiencies of HTLV PRs on different substrates representing natural cleavage site sequences. Cleavage sites are labelled by asterisks within the sequences. Abbreviations: MA (matrix), CA (capsid), NC (nucleocapsid), and TF1 (trans-frame 1). | column: kcat/KM [mM^−1 s^−1] / HTLV-1 PR || Table” for “Table”, “column: Substrate;” for “column:”, “HTLV-1” for “HIV-1”

The target in assay [3] is HTLV-2 PR (Human T-cell leukemia virus 2, UniProt P03363). The assay is described as follows: Protease activity assay with oligopeptide substrates (RP-HPLC), HTLV-2 PR. Conditions: pH 5.6, 37 °C. More on the design: made in house; host or cells: E. coli BL21(DE3). In kind it is biochemical, human T-cell leukemia virus type 2. The source says: (§2) The oligopeptides representing the naturally occurring matrix/capsid (MA/CA), capsid/nucleocapsid (CA/NC), trans-frame protein/protease (TF1/PR), and PR/p1 cleavage sites of HTLV-1, -2, and -3 PRs were used as substrates. The oligopeptide substrates representing the natural sequences of HTLV PRs were ordered from BioBasic, while the oligopeptide substrates representing naturally occurring cleavage sites of various viruses, or the wild-type, the shortened, and the P4, P3, P2, P1, or P1′ variants of HTLV-1 MA/CA cleavage site (KTKVL*VVQPK) were in-house stocks. All peptides were dissolved in distilled water.
(§3) For kinetic measurements, we applied 10 µL 2× incubation buffer (0.5 M K3PO4, 4 M NaCl, 10 v/v% glycerol, 10 mM DTT, pH 5.6), 5 µL of HTLV-1, HTLV-2, or HTLV-3 PR (final concentration of the active enzyme was in 0.1–34.4 nM), and 0.5–5 µL oligopeptide substrate representing HTLV PR natural cleavage sites (0.05–1.10 mM final concentration). The final volume of the reaction mixture was set to 20 µL with distilled water if it was necessary. The reactions were initiated by the addition of the enzyme, were incubated at 37 °C for 0.5–4 h, and stopped by the addition of 180 µL 1 v/v% TFA. For substrates representing natural cleavage sites of retroviruses other than HTLV-1, -2, and -3 PRs (HIV-1, equine infectious anemia virus (EIAV), Rous sarcoma virus (RSV), mouse mammary tumor virus (MMTV), Mason-Pfizer monkey virus (MPMV), and murine leukemia virus (MuLV) and BLV) in a longer incubation time (24 h) was also applied. The cleavage products were separated by using a Nova-Pack C18 RP-HPLC column (3.9 mm × 150 mm, Waters Associates Inc, Milford, MA, USA) on HPLC (Merck-Hitachi LaChrom). Water-acetonitrile gradient (0–100%) was used for separation in the presence of 0.05% TFA at 2 mL/min flow rate. The kinetic parameters were determined by fitting the data—obtained at less than 20% substrate hydrolysis—to the Michaelis–Menten equation. The Gaussian equation was used to determine pH optimum and exponential growth equation for determination of optimal NaCl concentration, while linear regression was applied to plot the dependence of enzyme activity on temperature. Prism8 software (GraphPad Software Inc., San Diego, CA, USA) was used for evaluation. The kcat/KM catalytic constants were calculated based on the active enzyme concentration, which was determined by active site titration using the method described previously.

The target of assay [4] is HTLV-3 PR (Human T-cell leukemia virus 3, UniProt Q4U0X6). The assay can be described thus: Protease activity assay with oligopeptide substrates (RP-HPLC), HTLV-3 PR. The note with it: pH 5.6, 37 °C. The arrangement: made in house; host or cells: E. coli BL21(DE3), pET11a. The format is biochemical, human T-cell leukemia virus type 3.
From the text: as §2, §3

Setting [5] is: cleavage sites of viruses other than HTLV, retrieved from the literature, ref [28].
[6] abbreviates: cleavage sites of viruses other than HTLV, longer incubation time (24 h) also applied.
Where [7] appears, read: natural HTLV-1 cleavage site substrates, previously reported values, ref [34].
The mark [8] stands for this setting: natural HTLV cleavage sites, substrate 0.05–1.10 mM, 2× buffer 0.5 M K3PO4, 4 M NaCl, 10 v/v% glycerol, 10 mM DTT, 0.5–4 h.

HTLV-2 PR, sequence (P03363 447-571): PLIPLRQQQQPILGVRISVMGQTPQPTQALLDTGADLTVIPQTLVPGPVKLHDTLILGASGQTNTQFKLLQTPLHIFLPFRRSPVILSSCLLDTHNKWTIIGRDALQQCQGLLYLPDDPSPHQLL
HTLV-3 PR, sequence (Q4U0X6 431-553): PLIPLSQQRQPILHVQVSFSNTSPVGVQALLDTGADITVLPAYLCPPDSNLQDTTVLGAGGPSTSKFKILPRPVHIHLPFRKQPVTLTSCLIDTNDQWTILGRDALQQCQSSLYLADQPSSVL

As for “AKLVL*AQLSK [EIAV PR/RT, oligopeptide substrate AKLVL*AQLSK]”, the kcat/KM was 13400 M⁻¹ s⁻¹ in assay [1], “not cleaved” in assay [2] (setting [5]), “not cleaved” in assay [3] (setting [6]) and “not cleaved” in assay [4] (setting [6]).

As to “APQVL*PVMHP [HTLV-1 MA/CA, oligopeptide substrate APQVL*PVMHP]”, the kcat/KM was 85.2 ± 26.1 ^1 mM^−1 s^−1 in assay [2] (setting [7]), 5500 ± 1000 M⁻¹ s⁻¹ in assay [3] (setting [8]) and 32500 ± 6700 M⁻¹ s⁻¹ in assay [4] (setting [8]).

Regarding “CTLNF*PISP [HIV-1 PR/RT, oligopeptide substrate CTLNF*PISP]”, the kcat/KM in assay [1] was 24100 M⁻¹ s⁻¹; in assay [2] (setting [5]) it was “not cleaved”; in assay [3] (setting [6]), “not cleaved”; in assay [4] (setting [6]), “not cleaved”.

Consider “DELIL*PVKRK [MMTV P3/P8, oligopeptide substrate DELIL*PVKRK]”, for which the kcat/KM in assay [1] is 1500 M⁻¹ s⁻¹; in assay [2] (setting [5]) it was 2.6 mM⁻¹ s⁻¹; in assay [3] (setting [6]), “not cleaved”; in assay [4] (setting [6]), “not cleaved”.

Turning to “DPASIL*PVIP [HTLV-1 TF1/PR, oligopeptide substrate DPASIL*PVIP]”, the figures for the kcat/KM in assay [2] (setting [7]), in assay [3] (setting [8]) and in assay [4] (setting [8]) were 3.8 ± 0.6 ^1 mM^−1 s^−1, 400 ± 100 M⁻¹ s⁻¹ and 1200 ± 400 M⁻¹ s⁻¹, respectively.

“DSKAF*LADTW [MMTV PP21/P3, oligopeptide substrate DSKAF*LADTW]”: the kcat/KM in assay [1] is 7500 M⁻¹ s⁻¹; in assay [2] (setting [5]), “not cleaved”; in assay [3] (setting [6]), “not cleaved”; in assay [4] (setting [6]) it was “not cleaved”.

Consider “ERQAN*FLGKI [HIV-1 NC/P1, oligopeptide substrate ERQAN*FLGKI]”, for which the kcat/KM in assay [1] was 1000 M⁻¹ s⁻¹; in assay [2] (setting [5]) it was “not cleaved”; in assay [3] (setting [6]), “not cleaved”; in assay [4] (setting [6]), “not cleaved”.

Consider “IAAAM*SSAIQ [RSV CA/P3, oligopeptide substrate IAAAM*SSAIQ]”, for which the kcat/KM entry in assay [1], in assay [2] (setting [5]), in assay [3] (setting [6]) and in assay [4] (setting [6]) was “not cleaved” each time.

For “IQPLIM*AVVNR [RSV P3/NC, oligopeptide substrate IQPLIM*AVVNR]”, the kcat/KM in assay [1] is 318000 M⁻¹ s⁻¹; in assay [2] (setting [5]), over 100 mM⁻¹ s⁻¹; in assay [3] (setting [6]), “not cleaved”; in assay [4] (setting [6]), “not cleaved”.

As for “KARVL*AEAMS [HIV-1 CA/P2, oligopeptide substrate KARVL*AEAMS]”, the kcat/KM in assay [1] was 90000 M⁻¹ s⁻¹; in assay [2] (setting [5]), “not cleaved”; in assay [3] (setting [6]), “not cleaved”; in assay [4] (setting [6]) it was “not cleaved”.

On to “KEEIM*LAYQG [EIAV RT/RH, oligopeptide substrate KEEIM*LAYQG]”, for which the kcat/KM in assay [1] was 18300 M⁻¹ s⁻¹; in assay [2] (setting [5]), under 0.01 mM⁻¹ s⁻¹; in assay [3] (setting [6]), “not cleaved”; in assay [4] (setting [6]) it was “not cleaved”.

With “KGPPVIL*PIQAP [HTLV-1 PR/P1, oligopeptide substrate KGPPVIL*PIQAP]”, the kcat/KM in assay [2] (setting [7]) is 288.3 ± 73.6 ^1 mM^−1 s^−1; in assay [3] (setting [8]), 20600 ± 2800 M⁻¹ s⁻¹; in assay [4] (setting [8]), 238400 ± 60100 M⁻¹ s⁻¹.

For “KQPAIL*VHTPG [BLV CA/NC, oligopeptide substrate KQPAIL*VHTPG]”, the kcat/KM result in assay [1], in assay [2] (setting [5]), in assay [3] (setting [6]) and in assay [4] (setting [6]) was “not cleaved” each time.

Turning to “KTKVL*VVQPK [HTLV-1 CA/NC, oligopeptide substrate KTKVL*VVQPK]”, the figures for the kcat/KM in assay [2] (setting [7]), in assay [3] (setting [8]) and in assay [4] (setting [8]) were 150.6 ± 15.1 ^1 mM^−1 s^−1, 67200 ± 33400 M⁻¹ s⁻¹ and 30100 ± 15400 M⁻¹ s⁻¹, respectively.

With “LTFTF*PVVFMRR [MMTV N/CA, oligopeptide substrate LTFTF*PVVFMRR]”, the kcat/KM in assay [1] is 900 M⁻¹ s⁻¹; in assay [2] (setting [5]), 0.01 mM⁻¹ s⁻¹; in assay [3] (setting [6]), “not cleaved”; in assay [4] (setting [6]), “not cleaved”.

As to “PKDIF*PVTET [MPMV P12/CA, oligopeptide substrate PKDIF*PVTET]”, the kcat/KM in assay [1] was 200 M⁻¹ s⁻¹; in assay [2] (setting [5]), 0.2 mM⁻¹ s⁻¹; in assay [3] (setting [6]), “not cleaved”; in assay [4] (setting [6]), “not cleaved”.

For the substance “PPAIL*PIISE [BLV MA/CA, oligopeptide substrate PPAIL*PIISE]”, the kcat/KM in assay [1] is 300 M⁻¹ s⁻¹; in assay [2] (setting [5]), 164.5 mM⁻¹ s⁻¹; in assay [3] (setting [6]), “not cleaved”; in assay [4] (setting [6]) it was “not cleaved”.

Consider “PPAVS*LAMTM [RSV NC/PR, oligopeptide substrate PPAVS*LAMTM]”, for which the kcat/KM was 130 M⁻¹ s⁻¹ in assay [1], “not cleaved” in assay [2] (setting [5]), “not cleaved” in assay [3] (setting [6]) and “not cleaved” in assay [4] (setting [6]).

As to “PPMVG*VLDAP [BLV PR/P13, oligopeptide substrate PPMVG*VLDAP]”, the kcat/KM was 40 M⁻¹ s⁻¹ in assay [1], 0.7 mM⁻¹ s⁻¹ in assay [2] (setting [5]), “not cleaved” in assay [3] (setting [6]) and “not cleaved” in assay [4] (setting [6]).

With “PPVGFAG*AMA [MMTV P8/N, oligopeptide substrate PPVGFAG*AMA]”, the kcat/KM in assay [1] was under 10 M⁻¹ s⁻¹; in assay [2] (setting [5]) it was “not cleaved”; in assay [3] (setting [6]), “not cleaved”; in assay [4] (setting [6]), “not cleaved”.

In the case of “PPYVG*SGLYP [RSV P2B/P10, oligopeptide substrate PPYVG*SGLYP]”, the specificity constant (kcat/KM) entry in assay [1], in assay [2] (setting [5]), in assay [3] (setting [6]) and in assay [4] (setting [6]) was “not cleaved” throughout.

With “PRSSLY*PALTP [MuLV MA/P12, oligopeptide substrate PRSSLY*PALTP]”, the kcat/KM in assay [1] is 200 M⁻¹ s⁻¹; in assay [2] (setting [5]), “not cleaved”; in assay [3] (setting [6]), “not cleaved”; in assay [4] (setting [6]) it was “not cleaved”.

Take “PSEEY*PIMID [EIAV MA/CA, oligopeptide substrate PSEEY*PIMID]”: the kcat/KM in assay [1] is 15200 M⁻¹ s⁻¹; in assay [2] (setting [5]), 0.7 mM⁻¹ s⁻¹; in assay [3] (setting [6]), “not cleaved”; in assay [4] (setting [6]), “not cleaved”.

Turning to “PVVAM*PVVIK [RSV P10/CA, oligopeptide substrate PVVAM*PVVIK]”, the kcat/KM entry is “not cleaved” in assay [1], 0.1 mM⁻¹ s⁻¹ in assay [2] (setting [5]), “not cleaved” in assay [3] (setting [6]) and “not cleaved” in assay [4] (setting [6]).
